# Source: ChEMBL document CHEMBL1201862, “PubChem BioAssay data set” (2004)
#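 Briefly, cells in 96-well plates were exposed to five compound concentrations for 48 h, and endpoints were estimated by linear interpolation. At the GI50, growth is halved.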 Activity calls are given as the source filed them. Rule as the data show it: active = GI50 up to about 1.1 µM and inactive = higher.
# Columns and labels:
# Assay in all cases: NCI anticancer screen, dose series, 48 h
# SNB-78 = test system: SNB-78
# RXF 631 = test system: RXF 631
# KM-20L2 = test system: KM-20L2
# DMS-273 = test system: DMS-273
# M19-MEL = test system: M19-MEL
# LXFL 529 = test system: LXFL 529
# DMS-114 = test system: DMS-114
# XF498 = test system: XF498
# HOP-18 = test system: HOP-18
Compound,GI50 (SNB-78),GI50 (RXF 631),GI50 (KM-20L2),GI50 (DMS-273),GI50 (M19-MEL),GI50 (LXFL 529),GI50 (DMS-114),GI50 (XF498),GI50 (HOP-18)
N#Cc1c(-c2ccco2)cc(-c2ccccc2)nc1O,> 100 µM (inactive),> 100 µM (inactive),> 100 µM (inactive),> 100 µM (inactive),> 100 µM (inactive),> 100 µM (inactive),,,
CN/N=C(\C)C(CN1CCCCC1)C(C1=C(O)c2ccccc2OC1)c1ccccc1 (configuration not stated),> 100 µM (inactive),> 100 µM (inactive),> 100 µM (inactive),> 100 µM (inactive),> 100 µM (inactive),> 100 µM (inactive),79.3 µM (inactive),> 100 µM (inactive),
CC1CCP(=O)(c2ccccc2)c2ccccc21 (configuration not stated),> 100 µM (inactive),,> 100 µM (inactive),28.2 µM (inactive),24.4 µM (inactive),43.6 µM (inactive),38.4 µM (inactive),< 0.01 µM (active),> 100 µM (inactive)
COC(=O)C1=C(C(=O)OC)SC(=CC#CC=C2SC(C(=O)OC)=C(C(=O)OC)S2)S1,12.2 µM (inactive),,11.9 µM (inactive),10.5 µM (inactive),40.5 µM (inactive),14.3 µM (inactive),35.2 µM (inactive),4.53 µM (inactive),8.87 µM (inactive)
Cc1cc2c(cc1Br)C1(C)CCC(C)C1(C)O2 (configuration not stated),24 µM (inactive),,32.3 µM (inactive),19.6 µM (inactive),25.3 µM (inactive),57.7 µM (inactive),22 µM (inactive),22.5 µM (inactive),30.1 µM (inactive)
O=C1c2ccoc2C(=O)c2oc(=O)ccc21,12.2 µM (inactive),,> 46.1 µM (inactive),16.8 µM (inactive),1.56 µM (inactive),6.75 µM (inactive),2.05 µM (inactive),25.3 µM (inactive),21.6 µM (inactive)
N/N=C1\C(=O)N(CCc2ccccc2)C(=O)C1C(=O)NCCc1ccccc1 (configuration not stated),> 100 µM (inactive),> 100 µM (inactive),> 100 µM (inactive),> 100 µM (inactive),> 100 µM (inactive),> 100 µM (inactive),,> 100 µM (inactive),
CC(C)(Oc1ccc(/C=C/C(=O)c2ccc(Cl)cc2)cc1)C(=O)Nc1c(Cl)cccc1Cl,,19.5 µM (inactive),20.3 µM (inactive),,14.1 µM (inactive),13.9 µM (inactive),11.6 µM (inactive),17.7 µM (inactive),80.4 µM (inactive)
N#CC1(C#N)C2(c3ccccc3)OC(c3ccccc3)(c3cc4ccccc4cc32)C1(C#N)C#N,,,13.3 µM (inactive),16.3 µM (inactive),,1.62 µM (inactive),7.89 µM (inactive),,3.47 µM (inactive)
CN1C(=O)n2c(nc3ccccc32)C(N=[N+]=[N-])(N=[N+]=[N-])C1=O (configuration not stated),> 100 µM (inactive),> 100 µM (inactive),> 100 µM (inactive),> 100 µM (inactive),> 100 µM (inactive),> 100 µM (inactive),> 100 µM (inactive),> 100 µM (inactive),> 100 µM (inactive)
CC1(C)c2ccccc2N2O[C@@H]3C(=O)N(c4ccccc4)C(=O)[C@@H]3C21c1ccccc1 (some centres not stated),> 100 µM (inactive),,,> 100 µM (inactive),> 100 µM (inactive),> 100 µM (inactive),> 100 µM (inactive),> 100 µM (inactive),
COc1cc2c(cc1OC)C(Cl)C(c1ccc(Br)cc1)=C2Cl (configuration not stated),13.5 µM (inactive),,18.5 µM (inactive),14.3 µM (inactive),16.4 µM (inactive),,9.06 µM (inactive),,20.9 µM (inactive)
N#C/N=C(/NCCc1c[nH]c2ccccc12)Oc1ccccc1,98.9 µM (inactive),,22.5 µM (inactive),> 100 µM (inactive),94.8 µM (inactive),72.8 µM (inactive),40.9 µM (inactive),21.1 µM (inactive),
COC(=O)c1cc(O)ccc1NC(=O)c1ccc(O)cc1,> 100 µM (inactive),> 100 µM (inactive),> 100 µM (inactive),,> 100 µM (inactive),> 100 µM (inactive),> 100 µM (inactive),> 100 µM (inactive),> 100 µM (inactive)
COC(=O)N1CCc2c(nc(N(C)CCO)[nH]c2=O)C1,> 100 µM (inactive),,> 100 µM (inactive),> 100 µM (inactive),> 100 µM (inactive),> 100 µM (inactive),> 100 µM (inactive),> 100 µM (inactive),> 100 µM (inactive)
COc1ccc2c3c(coc13)C(CCC(=O)O)CC2 (configuration not stated),> 100 µM (inactive),> 100 µM (inactive),> 100 µM (inactive),> 100 µM (inactive),> 100 µM (inactive),> 100 µM (inactive),> 100 µM (inactive),48.3 µM (inactive),88.5 µM (inactive)
CCOC1c2nc3ccccc3nc2-c2ccccc2N1C(C)=O (configuration not stated),> 100 µM (inactive),74.5 µM (inactive),> 100 µM (inactive),93.3 µM (inactive),> 100 µM (inactive),70.6 µM (inactive),> 100 µM (inactive),> 100 µM (inactive),51.6 µM (inactive)
CC(C)c1cccc(C(C)C)c1NC(=S)NN=C1C=C(C(C)(C)C)C(=O)C(C(C)(C)C)=C1,,9.95 µM (inactive),24.2 µM (inactive),29.9 µM (inactive),,32.3 µM (inactive),7.26 µM (inactive),22.8 µM (inactive),
COc1cc(Cn2c(=S)ss/c2=N\C(=S)N(C)C)cc(OC)c1OC,> 100 µM (inactive),4.25 µM (inactive),4.68 µM (inactive),4.41 µM (inactive),4.11 µM (inactive),6.37 µM (inactive),2.93 µM (inactive),,> 92 µM (inactive)
COc1cc2c(cc1OC)-c1cc3cc(OC)c(OC)cc3n1CC2,36.8 µM (inactive),,21.6 µM (inactive),,> 100 µM (inactive),54.8 µM (inactive),72.3 µM (inactive),18.9 µM (inactive),
